Experimental data: publication PMC10465960 (Acta Pharmaceutica Sinica. B, 2023)

Target: Trx-A-NMt-PCP (module 2 of the Sas17 NRPS protein) (Streptomyces calvus, UniProt A0A514JVM2)
Settings: NMt domain; methyl donor for PCP-bound Tyr; 5 mM SAM, 1 h

Chain of Trx-A-NMt-PCP (module 2 of the Sas17 NRPS protein) (A0A514JVM2 1553-2567): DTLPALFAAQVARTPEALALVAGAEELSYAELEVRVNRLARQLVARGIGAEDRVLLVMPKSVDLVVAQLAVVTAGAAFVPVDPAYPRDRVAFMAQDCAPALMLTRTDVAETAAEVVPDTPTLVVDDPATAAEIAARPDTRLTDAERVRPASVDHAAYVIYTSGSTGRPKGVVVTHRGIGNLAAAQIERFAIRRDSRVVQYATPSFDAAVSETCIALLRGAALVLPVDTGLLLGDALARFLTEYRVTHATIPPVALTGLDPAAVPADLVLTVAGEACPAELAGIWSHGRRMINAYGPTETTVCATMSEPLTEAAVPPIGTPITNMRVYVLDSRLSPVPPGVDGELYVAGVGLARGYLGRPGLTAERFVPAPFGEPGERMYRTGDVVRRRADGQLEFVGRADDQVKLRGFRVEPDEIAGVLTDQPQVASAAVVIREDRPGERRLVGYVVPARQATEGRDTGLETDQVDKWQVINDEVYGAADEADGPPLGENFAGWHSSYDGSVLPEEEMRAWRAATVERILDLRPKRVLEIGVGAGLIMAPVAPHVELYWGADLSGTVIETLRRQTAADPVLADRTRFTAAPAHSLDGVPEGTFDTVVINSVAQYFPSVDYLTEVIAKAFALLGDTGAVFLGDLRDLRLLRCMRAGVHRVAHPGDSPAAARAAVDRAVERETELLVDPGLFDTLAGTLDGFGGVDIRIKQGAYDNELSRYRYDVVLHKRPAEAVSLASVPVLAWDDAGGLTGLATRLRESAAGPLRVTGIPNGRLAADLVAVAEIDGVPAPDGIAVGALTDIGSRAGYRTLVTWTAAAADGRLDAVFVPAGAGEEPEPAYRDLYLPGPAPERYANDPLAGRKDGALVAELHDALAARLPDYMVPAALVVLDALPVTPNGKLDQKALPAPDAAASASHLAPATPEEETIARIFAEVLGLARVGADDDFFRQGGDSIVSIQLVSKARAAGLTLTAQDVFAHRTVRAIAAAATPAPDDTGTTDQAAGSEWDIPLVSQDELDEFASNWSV

SMILES: C[S+](CC[C@H](N)C(=O)O)C[C@H]1O[C@@H](n2cnc3c(N)ncnc32)[C@H](O)[C@@H]1O (stereo partly shown) [SAM]
- LC-MS of methylamine-cleaved PCP thioester: Reconstitution of the Mt domain using SAM then led to the methylation of the PCP-bound
